In patent publication US4257941A, “Polycyclic nitrogen-containing compounds” (BASF Aktiengesellschaft, priority 1976, dated 1981):

How the values were obtained:
Type in all cases: in vivo
sunflowers [1] = assay: Action on sunflowers (Example 24); settings: for Plant height relative: control 100
From the text: The active ingredients were applied both to the soil and to the leaves.

spring barley = assay: Stem length, lateral shoots and yield in spring barley (Example 12); settings: for Ear weight relative / No. of lateral shoots relative / Stem length relative: control 100
Procedure: To examine the effect of the various substances on spring barley up to the maturity stage of the plants, an experiment was carried out in large pots. The plants were grown in quartz sand (fertilized with 2 g N as ammonium nitrate in 3 doses, 1 g P2 O5 as secondary sodium phosphate, 1.5 g K2 O as potassium sulfate, 0.5 g MgO as magnesium sulfate, 10 ml of a solution of trace elements, and 10 mg of iron as an iron complex). […] The treated plants were up to 10% shorter than the control, and yields were also slightly up.

cotton = assay: Induction of flowering and growth height of cotton, hydroponic (Example 18); settings: for Shoot length: 4 weeks; for No. of squares per vessel (3 plants): control 0, average of 3 vessels; for Shoot length rel.: control 100
Procedure: Cotton plants were subjected to hydroponic treatment under the same conditions as in Example 16. The active ingredients were added (1.25 mg/vessel=0.3 ppm and 5 mg/vessel=1.25 ppm) at a height of the plant of 15 to 18 cm. […] The results below are averages from 3 vessels, each of 3 plants.

soybeans = assay: Action on soybeans, hydroponic (Example 17a); settings: for Root dry substance rel. / Root length rel. / Shoot dry substance rel. / Shoot length rel.: control 100
Procedure: (§1) Young soybean plants grown in quartz sand were transferred to hydroponic treatment in 4 liter vessels and provided with a sufficient supply of nutrient solution and trace elements. The active ingredients were added (0.25 mg/vessel=0.06 ppm; 1.0 mg/vessel=0.25 ppm; 2.5 mg/vessel=0.63 ppm) at a plant height of approx. 22 cm. The plants were in continuous contact with the active ingredients. […] The roots were also shorter, but the plants had more and stronger shoots.
(§2) The action on soybeans, field beans and sunflowers was examined under the same conditions as in Example 16. The shoots and roots of all 3 crop plants were considerably shortened. Whereas in the shoots the dry substance was reduced commensurately with the shortening, the dry substance in the roots rose (particularly in soybeans) as the concentration increased.

rice = assay: Action on rice (Example 23); settings: leaf; for Plant height: 66 days; for Plant height relative: control 100
Procedure: At a growth height of 11 to 13 cm the active ingredients were sprayed onto the leaves in the usual manner. The plants were measured after 66 days.

field beans = assay: Action on field beans, hydroponic (Example 17b); settings: for Root dry substance rel. / Root length rel. / Shoot dry substance rel. / Shoot length rel.: control 100
Procedure: as §1, §2

sunflowers [2] = assay: Action on sunflowers, hydroponic (Example 17c); settings: for Root dry substance rel. / Root length rel. / Shoot dry substance rel. / Shoot length rel.: control 100
Procedure: as §1, §2

`Clc1ccc(N2N=NC3C4CC(C5N=NC45)C32)cc1` (stereo not drawn) [drawing 408] showed a Plant height relative (sunflowers [1]; leaf, 1.5 kg/ha) of 78, a Plant height (sunflowers [1]; leaf, 6.0 kg/ha) of 25.5 cm and a Plant height relative (sunflowers [1]; leaf, 6.0 kg/ha) of 67.
Work on `Brc1ccc(N2N=NC3C4CC(C5N=NC45)C32)cc1` (stereo not drawn) [drawing 407] yielded a Plant height relative (sunflowers [1]; soil, 3.0 kg/ha) of 84, a Plant height (sunflowers [1]; soil, 12.0 kg/ha) of 22.5 cm and a Plant height relative (sunflowers [1]; soil, 12.0 kg/ha) of 62.
With `Brc1ccc(N2N=NC3C4CC(C5N=NC45)C32)cc1` (stereo not drawn) [drawing 409] the Plant height (sunflowers [1]; leaf, 1.5 kg/ha) was 33.0 cm, the Plant height relative (sunflowers [1]; leaf, 1.5 kg/ha) was 86 and the Plant height (sunflowers [1]; leaf, 6.0 kg/ha) was 30.0 cm. For the same compound, the Plant height relative (sunflowers [1]; leaf, 6.0 kg/ha) was 78.
`Clc1ccc(N2N=NC3C4CC(C5N=NC45)C32)cc1` (stereo not drawn) [drawing 377] was tested, and the Ear weight (spring barley; 0.5 kg/ha) was 91.5 g, the “No. of lateral shoots” value (spring barley; 0.5 kg/ha) was 105 and the Stem length (spring barley; 0.5 kg/ha) was 74.1 cm. For the same compound, the Ear weight relative (spring barley; 0.5 kg/ha) was 101.2, the “No. of lateral shoots relative” value (spring barley; 0.5 kg/ha) was 112.9 and the Stem length relative (spring barley; 0.5 kg/ha) was 96.4. The Ear weight (spring barley; 1.5 kg/ha) was 94.8 g, the “No. of lateral shoots” value (spring barley; 1.5 kg/ha) was 111 and the Stem length (spring barley; 1.5 kg/ha) was 69.7 cm. For the same compound, the Ear weight relative (spring barley; 1.5 kg/ha) was 104.9, the “No. of lateral shoots relative” value (spring barley; 1.5 kg/ha) was 119.4 and the Stem length relative (spring barley; 1.5 kg/ha) was 90.6.
For `Brc1ccc(N2N=NC3C4CC(C5N=NC45)C32)cc1` (stereo not drawn) [drawing 392], the Shoot length (cotton; 0.3 ppm) was 41.9 cm, the “No. of squares per vessel (3 plants)” value (cotton; 0.3 ppm) was 2.6 and the Shoot length rel. (cotton; 0.3 ppm) was 88.8. For the same compound, the Shoot length (cotton; 1.25 ppm) was 30.9 cm, the “No. of squares per vessel (3 plants)” value (cotton; 1.25 ppm) was 8.3 and the Shoot length rel. (cotton; 1.25 ppm) was 65.5.
Compound `Brc1ccc(N2N=NC3C4CC(C5N=NC45)C32)cc1` (stereo not drawn) [drawing 388] has a Root dry substance (soybeans; 0.06 ppm) of 1.5 g, a Root length (soybeans; 0.06 ppm) of 21.7 cm and a Shoot dry substance (soybeans; 0.06 ppm) of 5.4 g. For the same compound, the Shoot length (soybeans; 0.06 ppm) was 33.0 cm, the “Root dry substance rel.” value (soybeans; 0.06 ppm) was 136.4 and the Root length rel. (soybeans; 0.06 ppm) was 75.6. The “Shoot dry substance rel.” value (soybeans; 0.06 ppm) was 93.1, the Shoot length rel. (soybeans; 0.06 ppm) was 89.9 and the Root dry substance (soybeans; 0.25 ppm) was 1.5 g. For the same compound, the Root length (soybeans; 0.25 ppm) was 20.0 cm, the Shoot dry substance (soybeans; 0.25 ppm) was 4.9 g and the Shoot length (soybeans; 0.25 ppm) was 21.7 cm. The “Root dry substance rel.” value (soybeans; 0.25 ppm) was 136.4, the Root length rel. (soybeans; 0.25 ppm) was 69.7 and the “Shoot dry substance rel.” value (soybeans; 0.25 ppm) was 84.5. The Shoot length rel. (soybeans; 0.25 ppm) was 59.1, the Root dry substance (soybeans; 0.63 ppm) was 2.1 g and the Root length (soybeans; 0.63 ppm) was 20.0 cm. For the same compound, the Shoot dry substance (soybeans; 0.63 ppm) was 3.9 g, the Shoot length (soybeans; 0.63 ppm) was 19.0 cm and the “Root dry substance rel.” value (soybeans; 0.63 ppm) was 190.9. For the same compound, the Root length rel. (soybeans; 0.63 ppm) was 69.7, the “Shoot dry substance rel.” value (soybeans; 0.63 ppm) was 67.2 and the Shoot length rel. (soybeans; 0.63 ppm) was 51.8.
In the case of `Clc1ccc(N2N=NC3C4CC(C5N=NC45)C32)cc1` (stereo not drawn) [drawing 391], the Shoot length (cotton; 0.3 ppm) is reported as 40.2 cm, the “No. of squares per vessel (3 plants)” value (cotton; 0.3 ppm) is reported as 4.0 and the Shoot length rel. (cotton; 0.3 ppm) is reported as 85.2. The Shoot length (cotton; 1.25 ppm) was 27.8 cm, the “No. of squares per vessel (3 plants)” value (cotton; 1.25 ppm) was 8.7 and the Shoot length rel. (cotton; 1.25 ppm) was 58.9.
In the case of `Clc1ccc(N2N=NC3C4CC(C5N=NC45)C32)cc1` (stereo not drawn) [drawing 404], the Plant height (rice; 1.0 kg/ha) is reported as 35.0 cm, the Plant height relative (rice; 1.0 kg/ha) is reported as 86.2 and the Plant height (rice; 2.0 kg/ha) is reported as 33.0 cm. The Plant height relative (rice; 2.0 kg/ha) was 81.3, the Plant height (rice; 4.0 kg/ha) was 29.5 cm and the Plant height relative (rice; 4.0 kg/ha) was 72.7. For the same compound, the Plant height (rice; 6.0 kg/ha) was 28.5 cm and the Plant height relative (rice; 6.0 kg/ha) was 70.2.
In the case of `Brc1ccc(N2N=NC3C4CC(C5N=NC45)C32)cc1` (stereo not drawn) [drawing 389], the Root dry substance (field beans; 0.06 ppm) is reported as 3.8 g, the Root length (field beans; 0.06 ppm) is reported as 28.3 cm and the Shoot dry substance (field beans; 0.06 ppm) is reported as 14.5 g. The Shoot length (field beans; 0.06 ppm) was 69.7 cm, the “Root dry substance rel.” value (field beans; 0.06 ppm) was 63.3 and the Root length rel. (field beans; 0.06 ppm) was 68.5. The “Shoot dry substance rel.” value (field beans; 0.06 ppm) was 85.8, the Shoot length rel. (field beans; 0.06 ppm) was 95.5 and the Root dry substance (field beans; 0.25 ppm) was 5.3 g. The Root length (field beans; 0.25 ppm) was 28.3 cm, the Shoot dry substance (field beans; 0.25 ppm) was 14.5 g and the Shoot length (field beans; 0.25 ppm) was 67.3 cm. The “Root dry substance rel.” value (field beans; 0.25 ppm) was 85.5, the Root length rel. (field beans; 0.25 ppm) was 68.5 and the “Shoot dry substance rel.” value (field beans; 0.25 ppm) was 85.8. The Shoot length rel. (field beans; 0.25 ppm) was 92.2, the Root dry substance (field beans; 0.63 ppm) was 6.0 g and the Root length (field beans; 0.63 ppm) was 25.0 cm. For the same compound, the Shoot dry substance (field beans; 0.63 ppm) was 13.0 g, the Shoot length (field beans; 0.63 ppm) was 56.7 cm and the “Root dry substance rel.” value (field beans; 0.63 ppm) was 96.8. The Root length rel. (field beans; 0.63 ppm) was 60.5, the “Shoot dry substance rel.” value (field beans; 0.63 ppm) was 76.9 and the Shoot length rel. (field beans; 0.63 ppm) was 77.7.
`Brc1ccc(N2N=NC3C4CC(C5N=NC45)C32)cc1` (stereo not drawn) [drawing 390] was tested, and the Root dry substance (sunflowers [2]; 0.06 ppm) was 1.5 g, the Root length (sunflowers [2]; 0.06 ppm) was 18.7 cm and the Shoot dry substance (sunflowers [2]; 0.06 ppm) was 6.3 g. For the same compound, the Shoot length (sunflowers [2]; 0.06 ppm) was 35.0 cm, the “Root dry substance rel.” value (sunflowers [2]; 0.06 ppm) was 100 and the Root length rel. (sunflowers [2]; 0.06 ppm) was 93.5. The “Shoot dry substance rel.” value (sunflowers [2]; 0.06 ppm) was 98.4, the Shoot length rel. (sunflowers [2]; 0.06 ppm) was 84.7 and the Root dry substance (sunflowers [2]; 0.25 ppm) was 1.4 g. The Root length (sunflowers [2]; 0.25 ppm) was 16.7 cm, the Shoot dry substance (sunflowers [2]; 0.25 ppm) was 5.3 g and the Shoot length (sunflowers [2]; 0.25 ppm) was 27.3 cm. For the same compound, the “Root dry substance rel.” value (sunflowers [2]; 0.25 ppm) was 93.3, the Root length rel. (sunflowers [2]; 0.25 ppm) was 83.5 and the “Shoot dry substance rel.” value (sunflowers [2]; 0.25 ppm) was 82.8. The Shoot length rel. (sunflowers [2]; 0.25 ppm) was 66.1, the Root dry substance (sunflowers [2]; 0.63 ppm) was 1.6 g and the Root length (sunflowers [2]; 0.63 ppm) was 12.7 cm. For the same compound, the Shoot dry substance (sunflowers [2]; 0.63 ppm) was 5.2 g, the Shoot length (sunflowers [2]; 0.63 ppm) was 27.3 cm and the “Root dry substance rel.” value (sunflowers [2]; 0.63 ppm) was 106.7. For the same compound, the Root length rel. (sunflowers [2]; 0.63 ppm) was 63.5, the “Shoot dry substance rel.” value (sunflowers [2]; 0.63 ppm) was 81.3 and the Shoot length rel. (sunflowers [2]; 0.63 ppm) was 66.1.
With `Brc1ccc(N2N=NC3C4CC(C5N=NC45)C32)cc1` (stereo not drawn) [drawing 405] the Plant height (rice; 1.0 kg/ha) was 37.0 cm, the Plant height relative (rice; 1.0 kg/ha) was 91.1 and the Plant height (rice; 2.0 kg/ha) was 37.0 cm. For the same compound, the Plant height relative (rice; 2.0 kg/ha) was 91.1, the Plant height (rice; 4.0 kg/ha) was 34.5 cm and the Plant height relative (rice; 4.0 kg/ha) was 85.0. It also gave a Plant height (rice; 6.0 kg/ha) of 33.5 cm and a Plant height relative (rice; 6.0 kg/ha) of 82.5.
Compound `Clc1ccc(N2N=NC3C4CC(C5N=NC45)C32)cc1` (stereo not drawn) [drawing 406] has a Plant height (sunflowers [1]; soil, 3.0 kg/ha) of 26.5 cm, a Plant height relative (sunflowers [1]; soil, 3.0 kg/ha) of 73 and a Plant height (sunflowers [1]; soil, 12.0 kg/ha) of 15.5 cm. For the same compound, the Plant height relative (sunflowers [1]; soil, 12.0 kg/ha) was 43.
